Test [1] concerns CD4+ LNC from Vα4/Vβ8.2 TCR transgenic mice. The test is classed as cell-based, mouse. To be noted: CD4+ LNC and spleen cells, NAc 1-11 10 μg/ml, all concentrations used. How it is done:
The in vitro effect of varying concentration of the CD 28 peptide mimetics on CD4+ lymph node cells and spleen cells from transgenic mice bearing the Vα 4 Vβ8.2 TCR specific for MBP Ac 1-11 was determined.
CD4+ T cells were purified from pooled peripheral lymph nodes (inguinal, axillary, brachial, cervical, popliteal), and mesenteric lymph nodes and spleen of 6–8 wk old Vα4/Vβ8.2 TCR transgenic mice by positive selection. Single cell suspensions were prepared by lympholyte M gradient, washed, counted and incubated with magnetic bead conjugated anti-mouse CD4 (L3T4) (Miltenyi Biotech Corporation) followed by positive selection using magnetic selection columns. Purity of the CD4^+ cells was greater than 90% as assessed by staining with FITC labeled anti-mouseVβ8.2 mAb (Pharmingen). During the selection process, T cells maintain a naïve phenotype with no evidence for T cell activation as measured by proliferation in culture. Purified CD4+ T-cells (5×10^4 cells/well) were cultured together with wild type splenocytes from B10.PL mice as APC's (10^5 cells/well) in RPMI 1640 containing 10% FCS, 25 mM HEPES, 2 mM L-glutamine, 50 U/ml penicillin, 50 μg/ml streptomycin, and 5×10–5 M 2-ME in round-bottom 96-well plates and MBP (40 μg/ml) or MBP NAc1-11 (10 μg/ml) or media only in the presence or absence of synthetic CD28 peptide analogues at different concentrations in triplicate wells for 72 h, including a final 18-h pulse with [^3H] thymidine. Cultures were harvested onto glass-fiber mats using a Skatron harvester (Skatron, Sterling, Va.) and were counted by liquid scintillation on LKB Betaplate (LKB, Rockville, Md.). The means of the triplicate were determined and the results are expressed as delta cpm (mean counts per minute of cultures with Ag-mean counts per minute of cultures with medium alone)±SD.

The test system of the next test is CD4+Vβ8.2+ spleen cells. The test can be described thus: Apoptosis (TUNEL, flow cytometry) of antigen-stimulated CD4+Vβ8.2+ spleen cells in vitro. In kind it is cell-based, mouse. To be noted: 150 μM peptide, data not shown. Here is the method:
To investigate whether the observed decrease in proliferative responses following treatment with CD28 peptides is a result of cell loss, cell death was measured by enzymatic in-situ labeling. Apoptotic cells among MBP NAc1-11 stimulated TCR Vβ 8.2+ CD4+ T cells were detected by staining with FITC labeled Tdt (terminal deoxynucleotidyl transferase). Cells incubated in DNAse served as positive control.
CD4+ T cells from pooled lymph nodes and spleen from B10.PL TCR Vβ 8.2 Vα 4 transgenic mice were cultured in RPMI 1640 in a 96 well round-bottom plate, essentially under the conditions specified for proliferation assays. Cells were harvested at the end of 48 hours and apoptotic cells among TCR Vβ 8.2+ CD4+ T cells were detected by the TUNEL method. Briefly, after washing twice with PBS containing 1-% rat serum, the cells were stained with PE labeled anti-mouseVβ 8.1,8.2 TCR (clone MR5-2) (Pharmingen, San Diego, Calif.) for 30 min at room temperature and washed. […] After washing, the DNA strand breaks in the cells were detected by incubating the cells with fluorescein labeled TUNEL mix (terminal deoxynucleotidyl transferase (Tdt)) for 60 min at 37° C. using an in situ cell death detection kit (Boehringer Mannheim, Mannheim, Germany) according to the manufacturer's recommendations. […] Cells were then washed with PBS and analyzed by flow cytometry.

The test system of a further test is B10.PL mice with EAE. The test can be described thus: EAE in B10.PL mice immunized with GP-MBP in CFA, clinical score. In kind it is in vivo, mouse. To be noted: for clinical course (in words): single i.v. 500 μg on day 14 post-immunization, observed 26 days. Here is the method:
Female B10.PL mice (6–8 wk old) were obtained from The Jackson laboratory (Bar Harbor, Me.) and housed at the Ohio State University, (Columbus, Ohio).
Mice were injected subcutaneously over four sites on the flank with an emulsion containing 200 μg of guinea-pig-MBP in CFA containing 200 μg heat killed Mycobacterium tuberculosis, Jamaica strain. Pertussis toxin (List Biological, Campbell, Calif.) at 150 ng in 0.2 ml of PBS was given intraperitoneally at the time of immunization and 48 hours later. Animals were observed daily for clinical signs and scored as follows: 1, limp tail or waddling gait with tail tonicity; 2, waddling gait with limp tail (ataxia); 2.5 ataxia with partial paralysis of one limb, 3, partial hind-limb paralysis, 3.5 full paralysis of one limb with partial paralysis of the second limb, 4, full paralysis of two limbs, 4.5 moribund and 5, death. All mice immunized with MBP (200 μg) in CFA developed clinical disease varying between ataxia and complete hind limb paralysis by day 14 post-immunization. They were then distributed randomly into six groups with mean clinical score of each group approximately the same.
Groups of mice were left untreated or injected intravenously with 500 μg of EL CD28 or RI CD28 peptide mimetics, or LCD28, RLCD28 and DCD28 peptides. The mean clinical score of untreated mice continued to increase reaching a maximum of 3.4 on day 20. Similarly the disease continued to progress in mice treated with LCD28, RLCD28 and DCD28, reaching mean maximal clinical score of 3.8 (day 18), 3.4 (day 16 ) and 3.7 (day 16) respectively.
The biological activity of synthetic CD28 peptide analogues during antigen priming in vivo in EAE was then shown. B10.PL mice immunized with GP-MBP (200 μg) in CFA were either left untreated or injected intravenously 500 μg of EL CD28 or RI CD28 peptide mimetics or LCD28, RLCD28 and DCD28 peptides on the day of immunization. The vehicle treated mice and mice treated with: LCD28, RL CD28 and D CD28 peptide had maximum disease incidence of 100%, 100%, 91.5% and 91.5% and maximum mean cumulative score per day of 1.9, 1.8, 1.7 and 2 respectively. […] The effect of RI CD28 peptide injection lasted for the duration of observation (37 days) in one experiment.

[2] abbreviates: single i.v. 500 μg on the day of immunization.

Square brackets hold non-standard residues; d marks the D form. Peptide text beside a SMILES is read from it.

The text below walks through data of US7220822B2, “CD28 mimetics for blocking T cell mediated immune reactions” (The Ohio State University, priority 2000, dated 2007).

Take `CC[C@H](C)[C@H](NC(=O)[C@@H](NC(=O)CNC(=O)[C@H](CC(N)=O)NC(=O)[C@H](CO)NC(=O)[C@H](CCCNC(=N)N)NC(=O)[C@H](CCC(=O)O)NC(=O)[C@H](CC(N)=O)NC(=O)[C@H](CC(=O)O)NC(=O)[C@H](CC(C)C)NC(=O)[C@H](Cc1ccc(O)cc1)NC(=O)[C@@H]1CCCN1C(=O)[C@@H]1CCCN1C(=O)[C@@H]1CCCN1C(=O)[C@H](Cc1ccc(O)cc1)NC(=O)[C@H](CCSC)NC(=O)[C@H](Cc1ccccc1)NC(=O)[C@H](CCC(=O)O)NC(=O)[C@@H](NC(=O)[C@H](CCCCN)NC(C)=O)[C@@H](C)CC)[C@@H](C)O)C(N)=O` [EL CD28] (Ac-KIEFMYPPPYLDNERSNGTI-NH2): in test [1], the “proliferative response / inhibition of T cell proliferation (in words)” value is “significantly less”. Besides, in the test on CD4+Vβ8.2+ spleen cells, the “apoptosis (in words)” value is on record as “increase in apoptosis”. The “clinical course (in words)” value in the test on B10.PL mice with EAE was “continued to show clinical improvement”. Besides, in the test with B10.PL mice with EAE (setting [2]), the maximum disease incidence came out at 70% and the “maximum mean cumulative score per day” value turned out to be 1.1.
As for `CC[C@@H](C)[C@@H](NC(C)=O)C(=O)N[C@@H](C(=O)NCC(=O)N[C@H](CC(N)=O)C(=O)N[C@H](CO)C(=O)N[C@H](CCCNC(=N)N)C(=O)N[C@H](CCC(=O)O)C(=O)N[C@H](CC(N)=O)C(=O)N[C@H](CC(=O)O)C(=O)N[C@H](CC(C)C)C(=O)N[C@H](Cc1ccc(O)cc1)C(=O)N1CCC[C@@H]1C(=O)N1CCC[C@@H]1C(=O)N1CCC[C@@H]1C(=O)N[C@H](Cc1ccc(O)cc1)C(=O)N[C@H](CCSC)C(=O)N[C@H](Cc1ccccc1)C(=O)N[C@H](CCC(=O)O)C(=O)N[C@@H](C(=O)N[C@H](CCCCN)C(N)=O)[C@H](C)CC)[C@H](C)O` [RI CD28] (Ac-[dI][dT]G[dN][dS][dR][dE][dN][dD][dL][dY][dP][dP][dP][dY][dM][dF][dE][dI][dK]-NH2), in test [1], the “proliferative response / inhibition of T cell proliferation (in words)” value was “significantly less”. The “apoptosis (in words)” value with CD4+Vβ8.2+ spleen cells is reported as “increase in apoptosis”. The “clinical course (in words)” value with B10.PL mice with EAE is reported as “continued to show clinical improvement”. In the test on B10.PL mice with EAE (setting [2]), the maximum disease incidence amounted to 60% and the “maximum mean cumulative score per day” value is 0.74. Besides, the “duration of effect of injection” value in the test with B10.PL mice with EAE (single i.v. 500 μg on the day of immunization, one experiment, duration of observation) came out at 37 days.
